Data on 20 compounds can be found in patent US20240059700A1, “NOVEL DIACYLGLYCERIDE O-ACYLTRANSFERASE 2 INHIBITORS” (Merck Sharp & Dohme LLC, priority 2020, published 2024).

Sequence of human DGAT2 (hDGAT2) (Q96PD7 whole entry): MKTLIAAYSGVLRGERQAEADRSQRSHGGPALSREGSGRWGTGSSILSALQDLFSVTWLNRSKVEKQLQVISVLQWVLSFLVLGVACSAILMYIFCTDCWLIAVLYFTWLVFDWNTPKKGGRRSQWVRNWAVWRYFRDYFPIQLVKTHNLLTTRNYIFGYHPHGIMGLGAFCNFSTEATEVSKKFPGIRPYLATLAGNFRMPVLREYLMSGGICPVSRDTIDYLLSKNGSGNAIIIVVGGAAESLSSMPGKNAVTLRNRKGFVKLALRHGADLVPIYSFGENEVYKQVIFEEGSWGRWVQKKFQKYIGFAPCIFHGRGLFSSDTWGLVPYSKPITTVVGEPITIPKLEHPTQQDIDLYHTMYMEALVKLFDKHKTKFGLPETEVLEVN

In the assay the target is human DGAT2 (hDGAT2) (Homo sapiens (Human), UniProt Q96PD7). Briefly: DGAT2 Enzymatic Activity Assay. It is filed as biochemical. The settings on record: membrane prep of Sf-9 insect cells expressing hDGAT2; 13C18-triolein product by LC/MS/MS. The gist of the method:
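Membranes from Sf-9 cells infected with untagged hDGAT2 baculovirus (8 ng/μL) incubated at rt in 100 mM Tris pH 7.0, 20 mM MgCl2, 5% ethanol with 25 μM diolein and 5 μM 13C oleoyl-CoA. 13C18-triolein product quantified by LC/MS/MS against 13C21-triolein internal standard; IC50 by 4-parameter fit.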
With `CC(C)n1nc(-c2cncc(OC(F)F)c2)c2ncc(C(=O)N[C@H]3CCC[C@H]3O)cc21` [Example 105, 3-(5-(difluoromethoxy)pyridin-3-yl)-N-((1S,2R)-2-hydroxycyclopentyl)-1-isopropyl-1H-pyrazolo[4,3-b]pyridine-6-carboxamide], the half-inhibitory concentration (IC50) (commonly the concentration that gives 50% inhibition) came out at 78 nM. In other words, the double-digit nanomolar range.
As for `CC(C)n1nc(-c2cccc(C3CC3)c2)c2ncc(C(=O)NC3(C)CS(=O)(=O)C3)cc21` [Example 92, 3-(3-cyclopropylphenyl)-1-isopropyl-N-(3-methyl-1,1-dioxidothietan-3-yl)-1H-pyrazolo[4,3-b]pyridine-6-carboxamide], the IC50 is 31 nM.
To `CC(=O)Nc1ccc(-c2nn(C(C)C)c3cc(C(=O)NC4(C)CS(=O)(=O)C4)cnc23)cc1O` [Example 124, 3-(4-acetamido-3-hydroxyphenyl)-1-isopropyl-N-(3-methyl-1,1-dioxidothietan-3-yl)-1H-pyrazolo[4,3-b]pyridine-6-carboxamide] belongs 620 nM; to `CC1(C)CC(n2nc(-c3cccc(OC(F)F)c3)c3ncc(C(=O)NC4(C)CS(=O)(=O)C4)cc32)C1` [Example 89, 3-(3-(difluoromethoxy)phenyl)-1-(3,3-dimethylcyclobutyl)-N-(3-methyl-1,1-dioxidothietan-3-yl)-1H-pyrazolo[4,3-b]pyridine-6-carboxamide], 2.9 nM.
The value for `CC(C(N)=O)n1nc(-c2cc(OC(F)F)ccc2F)c2ncc(C(=O)NC3(C)CS(=O)(=O)C3)cc21` (centres unmarked) [Example 90, 1-(1-amino-1-oxopropan-2-yl)-3-(5-(difluoromethoxy)-2-fluorophenyl)-N-(3-methyl-1,1-dioxidothietan-3-yl)-1H-pyrazolo[4,3-b]pyridine-6-carboxamide] was 480 nM.
Take `CC(C)n1nc(-c2cc(OC(F)F)ccc2F)c2ncc(C(=O)NC(C)(C)CN(C)C)cc21` [Example 55, 3-(5-(difluoromethoxy)-2-fluorophenyl)-N-(1-(dimethylamino)-2-methylpropan-2-yl)-1-isopropyl-1H-pyrazolo[4,3-b]pyridine-6-carboxamide]: the IC50 came to 212 nM.
The value for `CC(C)n1nc(-c2cc(C3CC3)ccc2F)c2ncc(C(=O)NC3(C)CS(=O)(=O)C3)cc21` [Example 117, 3-(5-cyclopropyl-2-fluorophenyl)-1-isopropyl-N-(3-methyl-1,1-dioxidothietan-3-yl)-1H-pyrazolo[4,3-b]pyridine-6-carboxamide] was 9.6 nM; that for `C[C@]1(NC(=O)c2cc3c(cn2)c(-c2cncc(OC(F)F)c2)nn3-c2ccc(F)cc2)CCS(=O)(=O)C1` [Example 6, (S)-3-(5-(difluoromethoxy)pyridin-3-yl)-1-(4-fluorophenyl)-N-(3-methyl-1,1-dioxidotetrahydrothiophen-3-yl)-1H-pyrazolo[4,3-c]pyridine-6-carboxamide] was 89 nM; that for `CC(C)n1nc(-c2cc(OCC(F)F)ncc2F)c2ncc(C(=O)NC3(C)CS(=O)(=O)C3)cc21` [Example 121, 3-(2-(2,2-difluoroethoxy)-5-fluoropyridin-4-yl)-1-isopropyl-N-(3-methyl-1,1-dioxidothietan-3-yl)-1H-pyrazolo[4,3-b]pyridine-6-carboxamide] was 8.3 nM.
To `CC(C)n1nc(-c2cccc(OC(F)F)c2)c2ncc(C(=O)NC3(C(C)O)CCOC3)cc21` (single isomer, unassigned) [Example 50d, 3-(3-(difluoromethoxy)phenyl)-N-(3-(1-hydroxyethyl)tetrahydrofuran-3-yl)-1-isopropyl-1H-pyrazolo[4,3-b]pyridine-6-carboxamide] belongs 150 nM.
To `C[C@]1(NC(=O)c2cnc3c(-c4ccccc4Cl)cn(-c4ccc(F)cc4)c3c2)CCS(=O)(=O)C1` [Example 11, (S)-3-(2-chlorophenyl)-1-(4-fluorophenyl)-N-(3-methyl-1,1-dioxidotetrahydrothiophen-3-yl)-1H-pyrrolo[3,2-b]pyridine-6-carboxamide] belongs 186 nM; to `CC(C)n1nc(-c2cc(OC(F)F)ccc2F)c2ncc(C(=O)NC3(C)CS(=O)(=O)C3)cc21` [Example 113, 3-(5-(difluoromethoxy)-2-fluorophenyl)-1-isopropyl-N-(3-methyl-1,1-dioxidothietan-3-yl)-1H-pyrazolo[4,3-b]pyridine-6-carboxamide], 1 nM; to `CC(C)n1nc(-c2cncc(OC(F)F)c2)c2ncc(C(=O)N[C@H]3CCCC[C@@H]3O)cc21` [Example 99, 3-[5-(difluoromethoxy)-3-pyridyl]-N-[(1S,2S)-2-hydroxycyclohexyl]-1-isopropyl-pyrazolo[4,3-b]pyridine-6-carboxamide], 52 nM.
In the case of `Cc1ncc(OC(F)F)cc1-c1nn(C(C)C)c2cc(C(=O)NC3(C)CS(=O)(=O)C3)ncc12` [Example 35, 3-(5-(difluoromethoxy)-2-methylpyridin-3-yl)-1-isopropyl-N-(3-methyl-1,1-dioxidothietan-3-yl)-1H-pyrazolo[4,3-c]pyridine-6-carboxamide], the 50% inhibitory concentration (IC50) amounted to 285 nM.
The value for `CC(C)n1nc(-c2cc(OC(F)(F)F)ccc2F)c2ncc(C(=O)NC3(C)CCS(=O)(=O)CC3)cc21` [Example 118, 3-(2-fluoro-5-(trifluoromethoxy)phenyl)-1-isopropyl-N-(4-methyl-1,1-dioxidotetrahydro-2H-thiopyran-4-yl)-1H-pyrazolo[4,3-b]pyridine-6-carboxamide] was 20 nM; that for `CC(C)n1nc(-c2cccc(OC(F)F)c2)c2ncc(C(=O)N[C@H]3CCC[C@H]3O)cc21` [Example 44, 3-(3-(difluoromethoxy)phenyl)-N-((1S,2R)-2-hydroxycydopentyl)-1-isopropyl-1H-pyrazolo[4,3-b]pyridine-6-carboxamide] was 64 nM; that for `CC(C)n1nc(-c2cc(OC(F)F)ccc2Cl)c2ncc(C(=O)NC3(C)CS(=O)(=O)C3)cc21` [Example 120, 3-(2-chloro-5-(difluoromethoxy)phenyl)-1-isopropyl-N-(3-methyl-1,1-dioxidothietan-3-yl)-1H-pyrazolo[4,3-b]pyridine-6-carboxamide] was 7.2 nM.
To `CC(C)(NC(=O)c1cnc2c(-c3cccc(OC(F)F)c3)cn(-c3ncc(F)cn3)c2c1)C(N)=O` [Example 18, N-(1-amino-2-methyl-1-oxopropan-2-yl)-3-(3-(difluoromethoxy)phenyl)-1-(5-fluoropyrimidin-2-yl)-1H-pyrrolo[3,2-b]pyridine-6-carboxamide] belongs 3420 nM.
Take `CC(CS(C)(=O)=O)NC(=O)c1cnc2c(-c3cccc(OC(F)F)c3)cn(-c3ncc(F)cn3)c2c1` (centres unmarked) [Example 17, 3-(3-(difluoromethoxy)phenyl)-1-(5-fluoropyrimidin-2-yl)-N-(1-(methylsulfonyl)propan-2-yl)-1H-pyrrolo[3,2-b]pyridine-6-carboxamide]: the concentration for half-maximal inhibition (IC50) came to 72 nM.
As to `C[C@]1(NC(=O)c2ccc3c(-c4ccccc4Cl)cn(-c4ccc(F)cc4)c3n2)CCS(=O)(=O)C1` [Example 10, (S)-3-(2-chlorophenyl)-1-(4-fluorophenyl)-N-(3-methyl-1,1-dioxidotetrahydrothiophen-3-yl)-1H-pyrrolo[2,3-b]pyridine-6-carboxamide], the midpoint of inhibition, the IC50, lay at 3700 nM. This IC50 is about 51-fold higher than that of the compound before.
